Source: patent US20090202661A1, “BEVERAGE MANUFACTURE, PROCESSING, PACKAGING AND DISPENSING USING ELECTROCHEMICALLY ACTIVATED WATER” (priority 2008, published 2009)

Assay: Residue neutralization: recovery and breakdown of pesticide and fungicide active ingredients after exposure to anolyte dilutions
Format: physicochemical
Conditions: 5 minutes, ambient temperature
Procedure: The breakdown of pesticide and fungicide residues by an oxidant ECA anolyte solution was evaluated as follows.
The oxidant anolyte solution was diluted using a 10 fold dilution series. As a control for this test, the potential for non-ECA based hydrolysis or chemical breakdown was assessed using two untreated control solutions, one being the tap water used as the diluent in the anolyte dilution series and the other being the non-activated brine solution that was used as the electrolysis feed solution prior to electro-activation.
The experiment was performed to contrast the difference in degree of recovery of a variety of pesticide and fungicide active ingredients (AI's) after the tap water and the various diluted anolyte solutions were ‘spiked’ with the same AI's at fixed inclusion rates. In each case, a one ppm cocktail of the active ingredients was added to a 100 ml aliquot of the test or control solution sample. The test samples were agitated with a mechanical stirrer for 5 minutes at ambient temperature and then extracted with an organic solvent and analyzed by either gas or liquid chromatography.

[1] = 0.25% Brine (nonactivated control)

CCCCNC(=O)n1c(NC(=O)OC)nc2ccccc21 [Benomyl]
ng found [1]: 0.970 ng
% breakdown (1% Anolyte solution): 8.0%
ng found (1% Anolyte solution): 0.890 ng
% breakdown (10% anolyte solution): 45%
ng found (10% anolyte solution): 0.520 ng
% breakdown (100% anolyte solution): 100%
ng found (100% anolyte solution): 0.000 ng

CCOC(=O)CC(SP(=S)(OC)OC)C(=O)OCC (stereo not shown) [Malathion]
ng found [1]: 1,327 ng
% breakdown (1% Anolyte solution): 0.0%
ng found (1% Anolyte solution): 1.368 ng
% breakdown (10% anolyte solution): 100%
ng found (10% anolyte solution): 0.066 ng
% breakdown (100% anolyte solution): 100%
ng found (100% anolyte solution): 0.067 ng

Cc1cc(C2CC2)nc(Nc2ccccc2)n1 [Cyprodinil]
ng found [1]: 1.297 ng
% breakdown (1% Anolyte solution): 0.0%
ng found (1% Anolyte solution): 1.356 ng
% breakdown (10% anolyte solution): 96.3%
ng found (10% anolyte solution): 0.068 ng
% breakdown (100% anolyte solution): 100%
ng found (100% anolyte solution): 0.026 ng

CCOP(=S)(OCC)Oc1nc(Cl)c(Cl)cc1Cl [Chlorpyrifos]
ng found [1]: 1.014 ng
% breakdown (1% Anolyte solution): 0.0%
ng found (1% Anolyte solution): 1.039 ng
% breakdown (10% anolyte solution): 100%
ng found (10% anolyte solution): 0.05 ng
% breakdown (100% anolyte solution): 100%
ng found (100% anolyte solution): 0.049 ng

CNC(=O)O/N=C/C(C)(C)[S+](C)[O-] (stereo not shown) [Aldicarb sulfoxide]
ng found [1]: 0.672 ng
% breakdown (1% Anolyte solution): 15.8%
ng found (1% Anolyte solution): 0.514 ng
% breakdown (10% anolyte solution): 100%
ng found (10% anolyte solution): 0.000 ng
% breakdown (100% anolyte solution): 100%
ng found (100% anolyte solution): 0.000 ng

CCCCc1c(C)nc(NCC)nc1OS(=O)(=O)N(C)C [Bupirimate]
ng found [1]: 1.250 ng
% breakdown (1% Anolyte solution): 0.0%
ng found (1% Anolyte solution): 1.233 ng
% breakdown (10% anolyte solution): 52.0%
ng found (10% anolyte solution): 0.730 ng
% breakdown (100% anolyte solution): 100%
ng found (100% anolyte solution): 0.074 ng

COP(=S)(OC)SCn1nnc2ccccc2c1=O [Azinphos-methyl]
ng found [1]: 2.341 ng
% breakdown (1% Anolyte solution): 0.0%
ng found (1% Anolyte solution): 2.393 ng
% breakdown (10% anolyte solution): 100%
ng found (10% anolyte solution): 0.000 ng
% breakdown (100% anolyte solution): 100%
ng found (100% anolyte solution): 0.000 ng

CNC(=O)O/N=C/C(C)(C)SC [Aldicarb]
ng found [1]: 0.920 ng
% breakdown (1% Anolyte solution): 49.5%
ng found (1% Anolyte solution): 0.425 ng
% breakdown (10% anolyte solution): 100%
ng found (10% anolyte solution): 0.000 ng
% breakdown (100% anolyte solution): 100%
ng found (100% anolyte solution): 0.000 ng

CNC(=O)ON=C(C)SC [Methomyl]
ng found [1]: 1.006 ng
% breakdown (1% Anolyte solution): 36.6%
ng found (1% Anolyte solution): 0.634 ng
% breakdown (10% anolyte solution): 100%
ng found (10% anolyte solution): 0.000 ng
% breakdown (100% anolyte solution): 100%
ng found (100% anolyte solution): 0.000 ng

CO/N=C(/C(=O)OC)c1ccccc1COc1ccccc1C [Kresoxim-methyl]
ng found [1]: 1.300 ng
% breakdown (1% Anolyte solution): 0.0%
ng found (1% Anolyte solution): 1.328 ng
% breakdown (10% anolyte solution): 0.0%
ng found (10% anolyte solution): 1.344 ng
% breakdown (100% anolyte solution): 100%
ng found (100% anolyte solution): 0.035 ng
